Data from patent publication US11291667B2, “Combination therapy involving diaryl macrocyclic compounds” (TURNING POINT THERAPEUTICS, INC., priority 2017, dated 2022).
Where two headings read alike, the source gives them in different places.

Legend:
[1] = test system: NCI-H1975 cells; assay: NCI-H1975 lung cancer cell proliferation assay (CellTiter-Glo); format: cell-based, Human; conditions: for IC50: Homo sapiens, NCI-H1975, 72 h; for inhibition of NCI-H1975 cell proliferation (in words): NCI-H1975 cells, 72 hours
Protocol: Cell proliferation was measured using CellTiter-Glo luciferase-based ATP detection assay (Promega) following the manufactures's protocol. IC50 determinations were performed using GraphPad Prism software (GraphPad, Inc., San Diego, Calif.).

[2] = test system: phosphorylated STAT3; assay: Immunoblotting for cellular kinase phosphorylation; format: cell-based, Human; conditions: NCI-H1975 cells, 4 hours, 1 μM concentration
Protocol: (§2) NSCLC NCI-H1975 cells (harboring EGFR L858R/T790M double mutations) were cultured in RPMI medium, supplemented with 10% fetal bovine serum and 100 U/mL of penicillin/streptomycin. […] Cells were collected after treatment and lysed in RIPA buffer (50 mM Tris, pH 7.4, 150 mM NaCl, 1% NP-40, 0.5% Deoxycholate, 0.1% SDS) supplemented with 10 mM EDTA, 1× Halt protease and phosphatase inhibitors (Thermo Scientific). […] Membranes were incubated with chemiluminescent substrate for 5 min at room temperature (SuperSignal West Femto, Thermo Scientific). The chemiluminescent images were acquired with a C-DiGit Imaging System (LI-COR Biosciences).

[3] = test system: phosphorylated ERK; assay: Immunoblotting for cellular kinase phosphorylation; format: cell-based, Human; conditions: NCI-H1975 cells, 4 hours, 1 μM concentration
Protocol: as §2

[4] = test system: phosphorylated EGFR; assay: Immunoblotting for cellular kinase phosphorylation; format: cell-based, Human
[5] = molecular target: FAK (Homo sapiens (Human), UniProt Q05397); assay: Enzymatic kinase inhibition assay 1 (Eurofins KinaseProfiler); format: biochemical; conditions: kinase activity remaining as % of DMSO control; 1 μM compound; ATP 10 μM
Protocol: (§1) The enzymatic kinase inhibition against FAK, SRC and JAK2 were evaluated at Eurofins using the Erofins KinaseProfiler™ panel. All compounds were prepared to a working stock of 50× final assay concentration in 100% DMSO. Where appropriate, more concentrated stocks were diluted manually to 50× using 100% DMSO. Compounds supplied as powders were reconstituted to a 10 mM stock in 100% DMSO before further dilution to 50×. The required volume of the 50× stock of test compound was added to the assay well, before a reaction mix containing the enzyme and substrate was added. The reaction was initiated by the addition of ATP at 10 μM concentration. There was no pre-incubation of the compound with the enzyme/substrate mix prior to ATP addition. Data are handled using a custom built in-house analysis software. Results are expressed as kinase activity remaining, as a percentage of the DMSO control. This is calculated using the following formula: […].

[6] = molecular target: JAK2 (Homo sapiens (Human), UniProt O60674); assay: as above; format: biochemical; conditions: kinase activity remaining as % of DMSO control; 1 μM compound; ATP 10 μM
Protocol: as §1

[7] = molecular target: SRC (Homo sapiens (Human), UniProt P12931); assay: as above; format: biochemical; conditions: kinase activity remaining as % of DMSO control; 1 μM compound; ATP 10 μM
Protocol: as §1

[8] = test system: phosphorylated AKT; assay: Immunoblotting for cellular kinase phosphorylation; format: cell-based, Human; conditions: NCI-H1975 cells, 4 hours, 1 μM concentration
Protocol: as §2

[9] = test system: phosphorylated paxillin; assay: Immunoblotting for cellular kinase phosphorylation; format: cell-based, Human; conditions: NCI-H1975 cells, 4 hours; for inhibition of phosphorylation of paxillin: 1 μM concentration
Protocol: as §2

[10] = read-out: anti-proliferation IC50
[11] = read-out: anti-proliferation IC50 of EGFR inhibitor with Compound 1 at 3 μM

Chain of SRC (P12931 whole entry, looked up): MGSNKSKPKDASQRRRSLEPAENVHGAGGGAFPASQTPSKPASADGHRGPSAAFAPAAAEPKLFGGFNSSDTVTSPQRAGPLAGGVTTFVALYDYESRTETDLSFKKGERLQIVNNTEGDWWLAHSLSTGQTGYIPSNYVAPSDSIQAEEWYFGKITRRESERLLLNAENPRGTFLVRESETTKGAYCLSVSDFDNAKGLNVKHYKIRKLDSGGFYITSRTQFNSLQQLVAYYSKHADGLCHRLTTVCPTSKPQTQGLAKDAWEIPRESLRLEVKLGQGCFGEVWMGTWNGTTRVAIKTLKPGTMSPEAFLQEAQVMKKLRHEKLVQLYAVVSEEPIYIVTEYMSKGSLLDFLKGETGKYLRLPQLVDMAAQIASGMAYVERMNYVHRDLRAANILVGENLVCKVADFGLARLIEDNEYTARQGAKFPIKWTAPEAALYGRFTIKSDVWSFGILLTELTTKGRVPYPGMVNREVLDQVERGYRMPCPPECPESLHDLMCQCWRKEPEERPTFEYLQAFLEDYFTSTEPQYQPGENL
Chain of FAK (Q05397 whole entry): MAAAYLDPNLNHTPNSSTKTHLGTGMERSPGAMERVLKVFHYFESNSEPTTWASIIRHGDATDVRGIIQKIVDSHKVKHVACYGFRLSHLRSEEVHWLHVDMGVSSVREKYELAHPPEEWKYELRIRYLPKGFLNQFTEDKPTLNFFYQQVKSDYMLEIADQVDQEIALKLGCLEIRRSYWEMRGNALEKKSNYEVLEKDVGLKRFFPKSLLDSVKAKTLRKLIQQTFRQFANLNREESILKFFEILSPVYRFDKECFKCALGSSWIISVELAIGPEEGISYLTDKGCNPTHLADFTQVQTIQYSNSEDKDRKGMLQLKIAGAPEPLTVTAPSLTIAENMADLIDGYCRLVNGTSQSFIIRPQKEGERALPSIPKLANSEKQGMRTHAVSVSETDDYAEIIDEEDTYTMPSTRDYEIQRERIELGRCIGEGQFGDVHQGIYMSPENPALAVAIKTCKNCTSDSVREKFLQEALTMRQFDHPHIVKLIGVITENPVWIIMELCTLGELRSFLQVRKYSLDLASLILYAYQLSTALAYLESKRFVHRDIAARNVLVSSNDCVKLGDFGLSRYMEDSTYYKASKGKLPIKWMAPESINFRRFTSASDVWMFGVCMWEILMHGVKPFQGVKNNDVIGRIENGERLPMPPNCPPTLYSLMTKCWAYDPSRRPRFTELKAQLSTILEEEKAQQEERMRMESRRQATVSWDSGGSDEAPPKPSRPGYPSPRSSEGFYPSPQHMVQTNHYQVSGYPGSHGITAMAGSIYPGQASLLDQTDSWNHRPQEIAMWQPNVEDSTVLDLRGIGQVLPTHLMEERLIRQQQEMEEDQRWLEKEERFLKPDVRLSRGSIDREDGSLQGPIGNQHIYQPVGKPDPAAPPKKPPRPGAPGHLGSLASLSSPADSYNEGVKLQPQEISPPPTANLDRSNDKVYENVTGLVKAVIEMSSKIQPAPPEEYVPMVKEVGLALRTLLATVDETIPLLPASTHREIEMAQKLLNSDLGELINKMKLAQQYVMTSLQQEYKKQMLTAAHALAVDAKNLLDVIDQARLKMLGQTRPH
Chain of JAK2 (O60674 whole entry): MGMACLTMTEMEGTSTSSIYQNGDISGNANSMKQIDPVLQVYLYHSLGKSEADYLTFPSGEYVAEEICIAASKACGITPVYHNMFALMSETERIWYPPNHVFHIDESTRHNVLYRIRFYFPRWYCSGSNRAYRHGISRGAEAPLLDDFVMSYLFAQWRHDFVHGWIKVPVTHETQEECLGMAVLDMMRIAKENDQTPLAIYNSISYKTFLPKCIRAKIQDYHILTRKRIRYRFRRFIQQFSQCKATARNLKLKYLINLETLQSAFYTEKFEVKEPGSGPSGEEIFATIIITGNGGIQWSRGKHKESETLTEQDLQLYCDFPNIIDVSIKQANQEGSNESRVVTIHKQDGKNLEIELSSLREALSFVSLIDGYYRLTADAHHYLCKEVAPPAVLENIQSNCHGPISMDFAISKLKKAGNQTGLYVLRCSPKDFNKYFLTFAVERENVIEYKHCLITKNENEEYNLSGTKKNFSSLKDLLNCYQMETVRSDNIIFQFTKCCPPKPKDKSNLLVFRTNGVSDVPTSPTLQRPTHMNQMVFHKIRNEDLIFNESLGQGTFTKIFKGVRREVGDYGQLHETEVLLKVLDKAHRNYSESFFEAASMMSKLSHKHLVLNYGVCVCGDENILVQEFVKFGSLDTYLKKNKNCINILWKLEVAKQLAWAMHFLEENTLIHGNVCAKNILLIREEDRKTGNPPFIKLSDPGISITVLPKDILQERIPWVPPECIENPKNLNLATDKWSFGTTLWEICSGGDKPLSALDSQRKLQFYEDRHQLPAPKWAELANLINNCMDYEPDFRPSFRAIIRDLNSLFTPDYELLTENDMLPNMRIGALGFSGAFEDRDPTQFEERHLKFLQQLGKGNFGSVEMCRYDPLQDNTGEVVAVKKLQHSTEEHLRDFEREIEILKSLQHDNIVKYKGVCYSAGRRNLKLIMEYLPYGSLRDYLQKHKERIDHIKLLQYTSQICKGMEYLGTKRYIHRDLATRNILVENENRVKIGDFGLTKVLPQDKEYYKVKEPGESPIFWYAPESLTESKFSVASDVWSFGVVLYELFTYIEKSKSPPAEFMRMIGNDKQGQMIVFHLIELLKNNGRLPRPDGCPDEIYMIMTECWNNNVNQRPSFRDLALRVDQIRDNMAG

SMILES	IC50 [1, 10]	inhibition of NCI-H1975 cell proliferation (in words) [1]	inhibition of phosphorylation of STAT3 [2]	inhibition of phosphorylation of ERK [3]	inhibition of phosphorylation of EGFR ([4]; NCI-H1975 cells, 4 hours, 1 μM concentration)	inhibition of EGFR phosphorylation ([4]; NCI-H1975 cells, 4 hours, dose response (FIG. 11))	% remaining FAK at 1 μM testing comp. [5]	% remaining JAK2 at 1 μM testing comp. [6]	% remaining SRC at 1 μM testing comp. [7]	inhibition of phosphorylation of AKT [8]	inhibition of phosphorylation of paxillin [9]	inhibition of phosphorylation of SRC/FAK substrate paxillin ([9]; dose response (FIG. 11))	IC50 [1, 11]	IC50 ([1]; read-out: anti-proliferation IC50 (partial))	inhibition of phosphorylation of EGFR [4]
C[C@H]1CNC(=O)c2cnn3ccc(nc23)N[C@H](C)c2cc(F)ccc2O1 [Compound 1, (7S,13R)-11-fluoro-7,13-dimethyl-6,7,13,14-tetrahydro-1,15-ethenopyrazolo[4,3-f][1,4,8,10]benzoxatriazacyclotridecin-4(5H)-one]	4000 nM	only partial inhibition activity	significant inhibition	minimum inhibition	minimum inhibition	no inhibition	−1%	0%	1%	minimum inhibition	significant inhibition	dose-dependently inhibited			
C[C@H]1Nc2ccn3ncc(c3n2)C(=O)NC[C@@H](O)COc2ccc(F)cc21 [Compound 2, (7R,14R)-12-fluoro-7-hydroxy-14-methyl-5,6,7,8,14,15-hexahydro-4H-1,16-ethenopyrazolo[4,3-g][1,5,9,11]benzoxatriazacyclotetradecin-4-one]							−1%	3%	2%						
O=C1NCCCOc2ccc(F)cc2CCc2ccn3ncc1c3n2 [Compound 3, 12-fluoro-5,6,7,8,14,15-hexahydro-4H-1,16-ethenopyrazolo[4,3-g][1,5,9]benzoxadiazacyclotetradecin-4-one]							−2%	6%	8%						
C#Cc1cccc(Nc2ncnc3cc(OCCOC)c(OCCOC)cc23)c1 [erlotinib]	6240 nM	not sensitive	minimum inhibition	minimum inhibition						minimum inhibition	minimum inhibition		1000 nM		
C=CC(=O)Nc1cc(Nc2nccc(-c3cn(C)c4ccccc34)n2)c(OC)cc1N(C)CCN(C)C [osimertinib]		[…]	minimum inhibition	significant inhibition						significant inhibition	minimum inhibition		[…]	[…]	significant inhibition
